Earlier results on two compounds are cited in patent US12442091B2, “Electrochemical dehydrogenation, epoxidation, substitution, and halogenation of hydrocarbons and hydrocarbon derivatives” (Wisconsin Alumni Research Foundation, priority 2020, dated 2025).

SMILES strings stand for the structures. Converted amounts (≈) assume the structure as drawn.

`CC(C)Br` [2-bromopropane]: the solubility in water is 3200 µg/mL (≈ 26 mM).

`C=CC` [propene]: the solubility in water is 384 µg/mL (≈ 9.13 mM).
